Laboratory results published in patent US9750844B2, “Composition for use in wound healing in burns” (ACADEMIA SINICA, priority 2014, dated 2017).
Entries after “also recorded” stand apart in the source; their conditions may differ.

Tests used:
MRSA [1] = assay: Assessment of wound infection: bacterial load (CFU) and Gram staining of wound tissue; type: in vivo, Balb/C mice; conditions: for Gram staining of MRSA / Gram-positive microorganisms in wound sections: Day 3 after inoculation
Procedure: Tissue samples were homogenized in PBS. Serially diluted aliquots of homogenate were cultured on Luria-Bertani agar after incubation for 18 h at 37° C., and cfu/g tissue were subsequently calculated. A stable wound infection was defined as 10^6 cfu/g tissue.
(§1) Full-thickness tissue was harvested for microbial and histological analysis. Samples from each experiment were fixed in 4% buffered paraformaldehyde. Tissue samples were stained with hematoxylin/eosin or Giemsa, and immunohistochemistry (IHC) was analyzed by three independent investigators. Images were taken with a BX-51 microscope (Olympus, Japan).
Multidrug-resistant strains of Staphylococcus aureus (MRSA) commonly associated with human wound infections were selected to generate a polymicrobial solution. The initial inoculum was prepared by culturing aerobic bacteria in Tryptic Soy Broth (TSB) overnight at 37° C. Broths were subsequently centrifuged at 1000 rpm for 15 min, and resuspended in TSB with 15% glycerol, or chopped meat extract with 15% glycerol (for aerobic bacteria). […] Prior to wound application, the bacterial stocks were re-mixed. Microbial load was determined by direct plating, followed by freeze-thaw and cfu enumeration, in parallel with inoculations. The inoculum was delivered by sterile pipettes to the center of open wounds. After euthanization (at Day 0, 3, 7, 14, or 17), two bisected tissue segments were used to determine microbial load using the protocol for human wound biopsy culture, as stated in the UPMC Clinical Microbiology Laboratory Procedure Manual. Tissue biopsies were weighed and placed in 1.5 ml of TSB, and then homogenized in a tissue grinder. A single drop of the homogenate was placed on the slide and Gram stained for rough assessment (if one or more bacteria are present within the oil immersion field, the expected count in the tissue is at least 10^5 cfu/g). Serial dilutions (1:10 (0.1+0.9)) of the tissue homogenate were made using distilled water. The cfu/g of tissue was calculated as follows: cfu/g=plate count (1/dilution)×10/wt. of homogenized tissue.

MCP-1, IL-6, TNF = assay: Serum cytokine/chemokine ELISA in MRSA-infected wounded mice; type: in vivo, Balb/C mice; conditions: Epi-1 study, 24 h post-treatment
From the text: (§2) Elisa kits for […] (Cat no. 555260, BD Biosciences, CA, USA), IL-6 (Cat no. 555240, BD Biosciences, CA, USA), and TNF (Cat no. 558534, BD Biosciences, CA, USA) were used to determine cytokine levels. Antibodies against macrophages (Cat no. 550282, BD Biosciences, CA, USA), monocytes (Cat no. 101301, BioLegend, London, UK), and VEGF (Cat no. 550549, BD Biosciences, CA, USA) were used for immunohistochemistry (IHC). Fish scale collagen peptides (FSCPs) were isolated from tilapia (Oreochromis sp.) by the Seafood Technology Division, Fisheries Research Institute, Council of Agriculture, Taiwan.
(§3) Each wound was inoculated with 50 μl of broth mix containing 10^6 CFU of the indicated microorganism. The wounds were treated with the antimicrobial peptide according to the invention and collagen at 5 min after inoculation. At 30 min after treatment, wounds were covered with Tegaderm to maintain uniformity and to prevent the loss of the materials as treated. The wounds were examined at Day 3, 7, and 14 after the wounds were created, and the non-contaminated wounds were examined every other day. The wounds were examined to assess the transitions from inflammatory to regenerative and regenerative to resolving phases of the wound healing. At the end of the examination period, the animals were euthanized by CO2 inhalation and the wounds were assessed. For each experiment, four individuals were examined in each group at each time point. Each wound was measured and then removed from the animal, with unwounded skin taken from the contralateral abdomen as a control.

MRSA [2] = assay: MRSA-infected full-thickness skin excision wound in mice: survival, wound closure, angiogenesis; type: in vivo, Balb/C mice; conditions: for survival of infected mice: wound infected with 10^6 CFU MRSA, topical treatment
Procedure: Six to eight week old Balb/C male mice were used for the examples. MRSA culture and quantification were carried out, and suspensions were serially diluted and spread onto LB-agar plates in duplicate for 24 hours. After the incubation period, colony forming units (CFU) were counted, averaged, and expressed as CFU/ml. All animal handing procedures were in accordance with National Taiwan Ocean University (NTOU) guidelines. All procedures were approved by the Animal Care and Use Committee of NTOU.
The mice were housed individually to prevent fighting and further damage to the wounds, and were given ad libitum access to food and water. The mice were maintained under 12 h/12 h light/dark cycle at a room temperature, and adapted to the environment for at least a week before used in the experiments. Each mouse's hair was removed from the back by shaving, and a full-thickness excisional wound (1 cm in diameter) was created on the back of the mice.
as §3
Tracings were taken immediately after injury. For uncontaminated wounds, wound size was determined every second day. For contaminated wounds, mice were euthanized at Day 3, 7, 14, or 17, and tracings of the wound edges were made. Wound areas were determined using the Macintosh Adobe Photoshop program and histological examination. The percentage of wound contraction was calculated as follows: % Wound contraction=(A0−At)/A0×100%
where A0 is the area of the original wound, and At is the area of the wound on Day 3, 7, 14, and 17.
Multidrug-resistant strains of Staphylococcus aureus (MRSA) commonly associated with human wound infections were selected to generate a polymicrobial solution. The initial inoculum was prepared by culturing aerobic bacteria in Tryptic Soy Broth (TSB) overnight at 37° C. Broths were subsequently centrifuged at 1000 rpm for 15 min, and resuspended in TSB with 15% glycerol, or chopped meat extract with 15% glycerol (for aerobic bacteria). The concentration was adjusted to 10^6 cfu/50 μl, and stored at −80° C. Prior to wound application, the bacterial stocks were re-mixed. Microbial load was determined by direct plating, followed by freeze-thaw and cfu enumeration, in parallel with inoculations. The inoculum was delivered by sterile pipettes to the center of open wounds. After euthanization (at Day 0, 3, 7, 14, or 17), two bisected tissue segments were used to determine microbial load using the protocol for human wound biopsy culture, as stated in the UPMC Clinical Microbiology Laboratory Procedure Manual. Tissue biopsies were weighed and placed in 1.5 ml of TSB, and then homogenized in a tissue grinder. A single drop of the homogenate was placed on the slide and Gram stained for rough assessment (if one or more bacteria are present within the oil immersion field, the expected count in the tissue is at least 10^5 cfu/g). Serial dilutions (1:10 (0.1+0.9)) of the tissue homogenate were made using distilled water. The cfu/g of tissue was calculated as follows: cfu/g=plate count (1/dilution)×10/wt. of homogenized tissue. […]

[3] = tested on: monocytes, macrophages, VEGF; assay: Histology (H&E, Giemsa) and immunohistochemistry of wound tissue; type: in vivo, Balb/C mice
From the text: as §2, §1

MRSA [4] = assay: Antimicrobial MIC/MBC assay against MRSA in vitro; type: cell-based, Staphylococcus aureus; conditions: bacterial proliferation by optical density at 600 nm
Procedure: Minimum inhibitory concentration (MIC) and minimum bactericidal concentration (MBC) antimicrobial assays were performed. For MIC assessment, the antimicrobial peptide, Epi-1, was diluted to final concentrations of […], or 0.78 μg/ml. Twenty microliters of each dilution were mixed in a microtiter plate well with […] of the appropriate bacterial indicator suspension, and 160 μl of Trypticase Soy Broth (TSB) for S. aureus, to a total volume of 200 μl. Three replicates were examined for each S. aureus strain, compound, and concentration. Positive controls contained water instead of compounds, and negative controls contained compounds without bacterial suspensions. Microbial growth was automatically determined by optical density measurement at 600 nm (Bioscreen C, Labsystem, Helsinki, Finland). Microplates were incubated at 25° C. for plant pathogens and at 37° C. for food-borne bacterial strains. Absorbance readings were taken at hourly intervals over a 48 h period. Plates were shaken for 20 seconds before each measurement. The experiment was repeated twice.

| Compound | Gram staining of MRSA / Gram-positive microorganisms in wound sections (MRSA [1]) | wound flora at Day 3 (MRSA [1]; initial inoculum approximately 10^4 cfu/10 μl) | induction of IL-6 in serum (MCP-1, IL-6, TNF) | induction of TNF-α in serum (MCP-1, IL-6, TNF) | wound closure time (MRSA [2]; contaminated wounds, GE33 study (FIG. 8B)) | survival of infected mice (MRSA [2]) | colony counts between Days 7 and 17 (MRSA [1]; MRSA-contaminated wounds) | healing and re-epithelialization of excision region (MRSA [2]; wound infected with 10^6 cfu MRSA, 3, 7, 14 days) | overall epidermal maturation, keratinization and regeneration of the epithelium ([3]; histology of wounds) | antibacterial efficacy against MRSA in vitro (MRSA [4]) | MRSA CFU in cultured injured skin sections (MRSA [1]; 24 h after treatment, compared to the control) | bacterial counts in cultured skin sections (CFU) (MRSA [1]; MRSA-infected mice, compared with vancomycin) | MCP-1 induction by MRSA in serum (MCP-1, IL-6, TNF) | wound closure (MRSA [2]; MRSA-infected wound, compared to vancomycin-treated mice and control mice) | new blood vessel formation (angiogenesis) (MRSA [2]; MRSA-infected wounded skin, light microscopy) | IHC staining of VEGF ([3]; infected wound, Day 3) | IHC staining/infiltration of macrophages ([3]; infected wound, Day 3) | IHC staining/infiltration of monocytes ([3]; infected wound, Day 3) | accumulation/recruitment of monocytes (Giemsa staining) ([3]; wounded area tissue sections, MRSA-infected) |
| --- | --- | --- | --- | --- | --- | --- | --- | --- | --- | --- | --- | --- | --- | --- | --- | --- | --- | --- | --- |
| COc1cccc(OC)c1C(=O)N[C@@H]1C(=O)N2[C@@H]1SC(C)(C)[C@@H]2C(=O)O [methicillin] | completely abolished | about 10^8 cfu/10 μl | unaffected | unaffected | lack of closure | died within four days |  |  |  |  |  |  |  |  |  |  |  |  |  |
| CN[C@H](CC(C)C)C(=O)N[C@H]1C(=O)N[C@@H](CC(N)=O)C(=O)N[C@H]2C(=O)N[C@H]3C(=O)N[C@H](C(=O)N[C@H](C(=O)O)c4cc(O)cc(O)c4-c4cc3ccc4O)[C@H](O)c3ccc(c(Cl)c3)Oc3cc2cc(c3O[C@@H]2O[C@H](CO)[C@@H](O)[C@H](O)[C@H]2O[C@H]2C[C@](C)(N)[C@H](O)[C@H](C)O2)Oc2ccc(cc2Cl)[C@H]1O [vancomycin] |  |  | significantly decreased | significantly decreased |  | survived | decreased | re-epithelialization observed | impairment in overall epidermal maturation |  |  |  |  |  |  |  |  |  |  |
| Epinecidin-1 (GFIFHIIKGLFHAGKMIHGLV; grouper) [Epi-1] | completely abolished; also recorded: more efficient at attenuating MRSA infection than vancomycin |  | significantly decreased | significantly decreased |  |  |  |  |  | good antibacterial efficacy | significantly reduced | significantly lower | decreased | faster | more prominent | clearly reduced | clearly reduced | clearly reduced | reduced their recruitment |
